Results taken from patent US9533964B2, “Piperazine substituted bridged spiro[2.4]heptane derivatives as ALX receptor agonists” (Actelion Pharmaceuticals Ltd, priority 2013, dated 2017).

Experiments:
[1] = target: T1, recombinant human ALX receptor (Homo sapiens, UniProt P25090); experiment: Intracellular calcium measurements (FLIPR), ALX receptor agonistic activity; type: cell-based; settings: HEK293-hALXR-Gα16 cells; median of n replications; normalized to WKYMVm 10 nM; read-out: EC50, agonistic activity with respect to the ALX receptor
T1 construct: expressed in transfected cells; host or cells: HEK293 (HEK293-hALXR-Gα16)
T1 sequence (P25090 1-351): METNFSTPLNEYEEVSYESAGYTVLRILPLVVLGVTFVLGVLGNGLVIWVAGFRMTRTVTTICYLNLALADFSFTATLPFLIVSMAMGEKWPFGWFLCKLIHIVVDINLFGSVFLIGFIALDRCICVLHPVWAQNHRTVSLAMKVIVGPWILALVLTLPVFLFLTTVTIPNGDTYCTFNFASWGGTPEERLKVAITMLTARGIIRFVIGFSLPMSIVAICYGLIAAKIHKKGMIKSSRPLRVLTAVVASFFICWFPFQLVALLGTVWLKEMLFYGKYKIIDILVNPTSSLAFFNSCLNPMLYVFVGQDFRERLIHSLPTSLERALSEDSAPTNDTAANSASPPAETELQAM
Procedure: The ALX receptor agonistic activity of the compounds of formula (I) is determined in accordance with the following experimental method.
Intracellular Calcium Measurements:
Cells expressing recombinant human ALX receptor and the G-protein Gα16 (HEK293-hALXR-Gα16) were grown to 80% confluency in Growing Medium (GM). Cells were detached from culture dishes with a cell dissociation buffer (Invitrogen, 13151-014), and collected by centrifugation at 1′000 rpm at rt for 5 min in Assay Buffer (AB) (equal parts of Hank's BSS (Gibco, 14065-049) and DMEM without Phenol Red (Gibco, 11880-028)). After 60 min incubation at 37° C. under 5% CO2 in AB supplemented with 1 μM Fluo-4 (AM) (Invitrogen, F14202) and 20 mM HEPES (Gibco, 15630-056), the cells were washed and resuspended in AB. They were then seeded onto 384-well FLIPR assay plates (Greiner, 781091) at 50′000 cells in 70 μl per well and sedimented by centrifugation at 1′000 rpm for 1 min. Stock solutions of test compounds were made up at a concentration of 10 mM in DMSO, and serially diluted in AB to concentrations required for activation dose response curves. WKYMVm (Phoenix Peptides) was used as a reference agonist. […] Changes in fluorescence were monitored before and after the addition of test compounds at lex=488 nm and lem=540 nm. […]

[2] = Plasma stability assay, rat serum; type: in vitro ADME
Procedure: (§1) Rat or human serum adjusted at pH 7.4 with lactic acid or ammonium hydroxide, were equilibrated at 37° C. under orbital shaking in an incubator containing 5% CO2. The reaction was initiated by the addition of 1 μM of compounds (1.5 μl of 1 mM stock solution in DMSO in 1498.5 μl of plasma). At 0.01, 0.25, 0.5, 1, 2, 3, 4 and 6 h, aliquots (100 μl) were transferred in a 96 well plate containing 300 μl MeOH placed on ice to stop the reaction. After vortexing for 20 min at 1400 rpm on an Eppendorf thermomixer, the plates were centrifuged at 3220 g for 20 min at 4° C. and the supernatants were analyzed with LC-MS/MS. Calibration samples in plasma containing 0.1% of dichlorvos were prepared and analysed in parallel to the incubation samples to allow the quantification. Half lives (T1/2) in hours were then calculated. In addition the remaining concentration of the respective compound after time Tlast relative to the concentration at the beginning has been determined (table 2).

[3] = Plasma stability assay, human serum; type: in vitro ADME
Procedure: as §1

EC50 [1]: 9.4 nM | remaining concentration at Tlast ([2]; Tlast 6 h, 1 μM, 37° C.): 100% | half-life at 1 μM ([2]; pH 7.4, 37° C.): > 6 h | remaining concentration at Tlast ([3]; Tlast 6 h, 1 μM, 37° C.): 82% | half-life at 1 μM ([3]; pH 7.4, 37° C.): > 6 h
Compound: Cc1ccc(C2(NC(=O)C3C(C(=O)NCCN4CCN(C)CC4)C4CCC3C43CC3)CC2)cc1 [Example 1, (5R)-N^5-(1-(p-tolyl)cyclopropyl)-(6R)-N^6-(2-(4-methylpiperazin-1-yl)ethyl)-(4S,7R)-[4,7-ethylene-spiro[2.4]heptane]-5,6-dicarboxamide]
